Source: PubChem BioAssay (NCI)
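Method: 48-hour compound exposure of cells in 96-well plates, five concentrations, linear interpolation of endpoints. GI50: concentration for 50% inhibition of growth. The concentration for full growth arrest is given as TGI.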

Legend:
Assay in all cases: NCI-60 cell line screen, 48 h; in the data active = GI50 below about 0.43 µM; inactive = the rest
SNB-75 CNS = tested on: SNB-75 CNS
SW-620 colon = tested on: SW-620 colon
COLO 205 colon = tested on: COLO 205 colon
HCT-116 colon = tested on: HCT-116 colon
A549 NSCLC = tested on: A549 NSCLC
786-0 renal = tested on: 786-0 renal
MDA-MB-435 = tested on: MDA-MB-435
SF-539 CNS = tested on: SF-539 CNS
TK-10 renal = tested on: TK-10 renal
SK-MEL-28 melanoma = tested on: SK-MEL-28 melanoma
UACC-257 melanoma = tested on: UACC-257 melanoma
NCI-H226 lung = tested on: NCI-H226 lung
SNB-19 CNS = tested on: SNB-19 CNS
LOX IMVI melanoma = tested on: LOX IMVI melanoma
NCI-H522 lung = tested on: NCI-H522 lung
RPMI-8226 leukemia = tested on: RPMI-8226 leukemia
OVCAR-5 ovarian = tested on: OVCAR-5 ovarian
PC-3 prostate = tested on: PC-3 prostate
HCC-2998 colon = tested on: HCC-2998 colon
MALME-3M melanoma = tested on: MALME-3M melanoma
NCI-H460 lung = tested on: NCI-H460 lung
HS 578T breast = tested on: HS 578T breast
T-47D breast = tested on: T-47D breast
SK-MEL-2 melanoma = tested on: SK-MEL-2 melanoma
HCT-15 colon = tested on: HCT-15 colon
SR leukemia = tested on: SR leukemia
U251 CNS = tested on: U251 CNS
MCF7 breast = tested on: MCF7 breast
IGROV1 ovarian = tested on: IGROV1 ovarian
SF-268 CNS = tested on: SF-268 CNS
SK-OV-3 ovarian = tested on: SK-OV-3 ovarian
A498 renal = tested on: A498 renal
NCI-H23 lung = tested on: NCI-H23 lung
UO-31 renal = tested on: UO-31 renal
HL-60(TB) leukemia = tested on: HL-60(TB) leukemia
HOP-62 NSCLC = tested on: HOP-62 NSCLC
HOP-92 NSCLC = tested on: HOP-92 NSCLC
DU-145 prostate = tested on: DU-145 prostate
NCI/ADR-RES ovarian = tested on: NCI/ADR-RES ovarian
SF-295 CNS = tested on: SF-295 CNS
ACHN renal = tested on: ACHN renal
EKVX NSCLC = tested on: EKVX NSCLC
M14 melanoma = tested on: M14 melanoma
CAKI-1 renal = tested on: CAKI-1 renal
SN12C renal = tested on: SN12C renal
CCRF-CEM leukemia = tested on: CCRF-CEM leukemia
UACC-62 melanoma = tested on: UACC-62 melanoma
SK-MEL-5 melanoma = tested on: SK-MEL-5 melanoma
K-562 leukemia = tested on: K-562 leukemia
BT-549 breast = tested on: BT-549 breast
OVCAR-4 ovarian = tested on: OVCAR-4 ovarian
RXF 393 renal = tested on: RXF 393 renal
HT29 colon = tested on: HT29 colon
OVCAR-8 ovarian = tested on: OVCAR-8 ovarian
OVCAR-3 ovarian = tested on: OVCAR-3 ovarian
MDA-MB-468 breast = tested on: MDA-MB-468 breast
MDA-MB-231 breast = tested on: MDA-MB-231 breast
KM12 colon = tested on: KM12 colon

CC/C(=C(/c1ccc(O)cc1)c1ccc(OCCN(C)C(=O)COCCOCCNC(=O)Cc2ccc3c(c2)CN([C@@H]2CCC(=O)NC2=O)C3=O)cc1)c1ccccc1
9.32 µM: TGI (SK-MEL-2 melanoma)
> 74.7 µM: TGI (U251 CNS)
214 nM: TGI (MDA-MB-468 breast)
inactive: GI50 (SW-620 colon) 490 nM | GI50 (COLO 205 colon) 702 nM | GI50 (HCT-116 colon) > 46.9 µM | GI50 (A549 NSCLC) > 34.7 µM | GI50 (786-0 renal) 25.6 µM | GI50 (MDA-MB-435) 15.7 µM | GI50 (SF-539 CNS) > 32.6 µM | GI50 (TK-10 renal) > 100 µM | GI50 (SK-MEL-28 melanoma) 6.19 µM | GI50 (UACC-257 melanoma) > 44.7 µM | GI50 (NCI-H226 lung) 1680 nM | GI50 (SNB-19 CNS) 1110 nM | GI50 (LOX IMVI melanoma) > 37.1 µM | GI50 (NCI-H522 lung) > 33.1 µM | GI50 (RPMI-8226 leukemia) 3.35 µM | GI50 (OVCAR-5 ovarian) 13 µM | GI50 (HCC-2998 colon) 2160 nM | GI50 (NCI-H460 lung) > 56.7 µM | GI50 (HS 578T breast) 427 nM | GI50 (SK-MEL-2 melanoma) 1140 nM | GI50 (HCT-15 colon) > 28 µM | GI50 (SR leukemia) 10 µM | GI50 (U251 CNS) > 35.3 µM | GI50 (SF-268 CNS) 3000 nM | GI50 (SK-OV-3 ovarian) 3.57 µM | GI50 (A498 renal) > 100 µM | GI50 (NCI-H23 lung) > 40.6 µM | GI50 (UO-31 renal) > 100 µM | GI50 (HOP-62 NSCLC) 1120 nM | GI50 (DU-145 prostate) > 53 µM | GI50 (NCI/ADR-RES ovarian) > 100 µM | GI50 (SF-295 CNS) > 31.3 µM | GI50 (ACHN renal) > 100 µM | GI50 (M14 melanoma) 7.95 µM | GI50 (CAKI-1 renal) > 26.8 µM | GI50 (SN12C renal) 1010 nM | GI50 (UACC-62 melanoma) > 31.3 µM | GI50 (SK-MEL-5 melanoma) 7.88 µM | GI50 (K-562 leukemia) 7.91 µM | GI50 (OVCAR-4 ovarian) 13.6 µM | GI50 (RXF 393 renal) 3.25 µM | GI50 (HT29 colon) > 29.8 µM | GI50 (OVCAR-8 ovarian) 939 nM | GI50 (OVCAR-3 ovarian) 10.3 µM | GI50 (KM12 colon) 2980 nM
> 40 µM: TGI (MCF7 breast)
> 24.8 µM: TGI (IGROV1 ovarian)
509 nM: TGI (BT-549 breast)
> 25.2 µM: TGI (HS 578T breast)
1480 nM: TGI (T-47D breast)
10.1 µM: TGI (HOP-62 NSCLC)
> 43 µM: TGI (SN12C renal)
> 40.1 µM: TGI (SW-620 colon)
8.99 µM: TGI (COLO 205 colon)
1800 nM: TGI (HOP-92 NSCLC)
13.9 µM: TGI (SNB-75 CNS)
> 28.2 µM: TGI (SK-MEL-5 melanoma)
1010 nM: TGI (MALME-3M melanoma)
> 30.7 µM: TGI (RXF 393 renal)
> 32.3 µM: TGI (RPMI-8226 leukemia)
active: GI50 (SNB-75 CNS) 48.6 nM | GI50 (PC-3 prostate) 407 nM | GI50 (MALME-3M melanoma) 112 nM | GI50 (T-47D breast) < 16.6 nM | GI50 (MCF7 breast) < 19.2 nM | GI50 (IGROV1 ovarian) 166 nM | GI50 (HL-60(TB) leukemia) < 20.8 nM | GI50 (HOP-92 NSCLC) 67.7 nM | GI50 (CCRF-CEM leukemia) 132 nM | GI50 (BT-549 breast) 55.4 nM | GI50 (MDA-MB-468 breast) < 16.7 nM | GI50 (MDA-MB-231 breast) 43.8 nM
> 84 µM: TGI (HCT-116 colon)
> 50.7 µM: TGI (MDA-MB-435)
> 49.2 µM: TGI (SF-539 CNS)
> 54.1 µM: TGI (UACC-62 melanoma)
> 59.9 µM: TGI (LOX IMVI melanoma)
> 44 µM: TGI (SK-MEL-28 melanoma)
> 76 µM: TGI (UACC-257 melanoma)
> 47.3 µM: TGI (KM12 colon)
> 44.9 µM: TGI (SR leukemia)
173 nM: TGI (MDA-MB-231 breast)
> 44.4 µM: TGI (NCI-H226 lung)
> 53 µM: TGI (OVCAR-3 ovarian)
> 100 µM: TGI (A549 NSCLC) | TGI (786-0 renal) | TGI (TK-10 renal) | TGI (OVCAR-5 ovarian) | TGI (PC-3 prostate) | TGI (NCI-H460 lung) | TGI (HCT-15 colon) | TGI (SF-268 CNS) | TGI (SK-OV-3 ovarian) | TGI (A498 renal) | TGI (UO-31 renal) | TGI (DU-145 prostate) | TGI (NCI/ADR-RES ovarian) | TGI (SF-295 CNS) | TGI (ACHN renal) | TGI (EKVX NSCLC) | TGI (M14 melanoma) | TGI (CAKI-1 renal) | TGI (CCRF-CEM leukemia) | TGI (K-562 leukemia) | TGI (OVCAR-4 ovarian) | TGI (HT29 colon) | TGI (OVCAR-8 ovarian)
> 87 µM: TGI (SNB-19 CNS)
> 68.9 µM: TGI (NCI-H23 lung)
> 35.3 µM: TGI (HCC-2998 colon)
> 53.1 µM: TGI (NCI-H522 lung)
